Values quoted from earlier work, collected in US9095514B2, “Pharmaceutical composition” (SUN PHARMA ADVANCED RESEARCH COMPANY LTD., priority 2009, dated 2015).

- stability in certain solvents (Sara Wu et al J. Pharm. Sci 89): quite unstable
- solubility of solid bortezomib (at 1 mg/ml in 0.9% w/v of sodium chloride): not soluble
- not stable for longer than (stored at 2° C.-8° C., U.S. Pat. No. 6,713,446): 3-6 months
- stable for (HPLC purity>97%) (stored at −2° C. to −20° C., U.S. Pat. No. 6,713,446): more than 2 years
Structure (SMILES): CC(C)C[C@H](NC(=O)[C@H](Cc1ccccc1)NC(=O)c1cnccn1)B(O)O [Bortezomib, N-(2-pyrazine) carbonyl-L-phenylalanine-L-leucine boronic acid]
